Publication PMC8820820, “Feasibility and safety of targeting mitochondria for cancer therapy – preclinical characterization of gamitrinib, a first-in-class, mitochondriaL-targeted small molecule Hsp90 inhibitor” (Cancer Biology & Therapy, 2022)
Where two headings read alike, the source gives them in different places.

Columns and labels:
[1] = biological target: T1, CYP2C8 (Homo sapiens, UniProt P10632); settings: microsomes
T1 sequence (P10632 1-490): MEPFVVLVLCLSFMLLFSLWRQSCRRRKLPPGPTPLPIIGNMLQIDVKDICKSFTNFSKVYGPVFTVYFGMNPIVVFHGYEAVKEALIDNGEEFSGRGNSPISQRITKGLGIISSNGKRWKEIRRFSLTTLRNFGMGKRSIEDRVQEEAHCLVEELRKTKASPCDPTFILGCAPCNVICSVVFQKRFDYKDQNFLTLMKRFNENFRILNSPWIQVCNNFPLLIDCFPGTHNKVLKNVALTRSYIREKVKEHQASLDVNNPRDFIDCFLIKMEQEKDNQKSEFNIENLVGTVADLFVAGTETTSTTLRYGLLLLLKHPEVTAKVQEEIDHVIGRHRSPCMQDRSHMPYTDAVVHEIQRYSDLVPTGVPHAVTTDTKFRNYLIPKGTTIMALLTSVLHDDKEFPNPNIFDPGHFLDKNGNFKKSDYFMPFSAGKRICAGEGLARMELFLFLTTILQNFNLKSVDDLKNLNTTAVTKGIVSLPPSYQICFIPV
Method: CYP inhibition in liver microsomes. […] Samples were analyzed for metabolite formation by LC-MS/MS. The results were expressed using the peak area ratio of analyte to internal standard, based on the calibration curves.
Where Range=fitted uninhibited value, s=slope factor, x=inhibitor concentration, y=% control activity.

[2] = biological target: hERG (Homo sapiens, UniProt Q12809)
hERG, sequence (Q12809 whole entry): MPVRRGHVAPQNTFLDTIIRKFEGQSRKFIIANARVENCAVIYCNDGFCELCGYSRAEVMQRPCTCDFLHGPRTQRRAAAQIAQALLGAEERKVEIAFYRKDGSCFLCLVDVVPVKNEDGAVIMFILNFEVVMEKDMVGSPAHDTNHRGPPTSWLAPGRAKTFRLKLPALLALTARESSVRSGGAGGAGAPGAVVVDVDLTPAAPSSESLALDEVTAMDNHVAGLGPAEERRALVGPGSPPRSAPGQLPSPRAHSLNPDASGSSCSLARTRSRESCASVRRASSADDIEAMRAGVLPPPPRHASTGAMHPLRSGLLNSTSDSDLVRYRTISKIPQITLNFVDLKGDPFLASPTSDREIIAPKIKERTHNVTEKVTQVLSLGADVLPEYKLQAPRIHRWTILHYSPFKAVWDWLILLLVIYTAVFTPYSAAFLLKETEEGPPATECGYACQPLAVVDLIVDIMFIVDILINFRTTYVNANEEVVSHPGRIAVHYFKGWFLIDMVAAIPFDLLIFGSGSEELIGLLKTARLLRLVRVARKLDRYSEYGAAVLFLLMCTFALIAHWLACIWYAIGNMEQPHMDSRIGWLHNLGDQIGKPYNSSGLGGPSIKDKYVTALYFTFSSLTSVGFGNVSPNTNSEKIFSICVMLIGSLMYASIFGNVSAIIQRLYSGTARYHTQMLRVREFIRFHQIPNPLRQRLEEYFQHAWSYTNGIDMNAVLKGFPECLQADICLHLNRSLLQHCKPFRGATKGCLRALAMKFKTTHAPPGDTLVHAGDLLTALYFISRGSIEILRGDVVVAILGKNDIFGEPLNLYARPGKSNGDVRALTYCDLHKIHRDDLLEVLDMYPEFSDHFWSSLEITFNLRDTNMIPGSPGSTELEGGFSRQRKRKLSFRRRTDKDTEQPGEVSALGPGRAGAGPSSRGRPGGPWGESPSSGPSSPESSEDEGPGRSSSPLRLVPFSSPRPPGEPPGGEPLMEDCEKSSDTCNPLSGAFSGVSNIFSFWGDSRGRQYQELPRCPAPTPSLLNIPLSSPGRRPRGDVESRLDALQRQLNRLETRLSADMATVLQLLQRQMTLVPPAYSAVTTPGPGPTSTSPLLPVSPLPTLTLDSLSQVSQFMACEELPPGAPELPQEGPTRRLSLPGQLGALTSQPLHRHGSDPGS
Method: Caco-2 and HEK293 cells were obtained from the American Type Culture Collection (ATCC, Manassas, VA) and grown in culture according to the supplier’s specifications. In some experiments, HEK293 cells were stably transfected with hERG cDNA, and polyclonal cultures were maintained in the presence of 250 µg/ml geneticin (G418).
Patch clamp recording. […] For electrophysiology recording, a micropipette was pulled from borosilicate glass with the pipette tip resistance between 3 ~ 5 MΩ. For each experiment, polyclonal HEK293 cells stably transfected with hERG cDNA and maintained in 250 µg/ml Geneticin (G418) were plated on 35 mm dishes on the microscope stage and a commercial patch clamp amplifier was used for the whole cell recordings. The tail currents were evoked at 22°C once every 30 sec by a 3 sec-50 mV repolarizing pulse following a 2 sec +50 mV depolarizing pulse with a hold voltage of -80 mV. A 50 msec depolarized pulse to -50 mV at the beginning of the voltage protocol served as a baseline for calculating the amplitude of the peak tail current. […] The cells were kept in the test solution until the peak tail current was stable (<5% change) for ~5 sweeps or for a maximum of 6 min, whichever came first. Peak tail amplitudes were plotted as a function of the sweep number. […] The % inhibition of the test article was calculated from the following equation:

[3] = biological target: T2, HCN4 (Homo sapiens, UniProt Q9Y3Q4); test: Ion channel screening; assay type: cell-based; settings: 10 µM
T2 sequence (Q9Y3Q4 1-1203): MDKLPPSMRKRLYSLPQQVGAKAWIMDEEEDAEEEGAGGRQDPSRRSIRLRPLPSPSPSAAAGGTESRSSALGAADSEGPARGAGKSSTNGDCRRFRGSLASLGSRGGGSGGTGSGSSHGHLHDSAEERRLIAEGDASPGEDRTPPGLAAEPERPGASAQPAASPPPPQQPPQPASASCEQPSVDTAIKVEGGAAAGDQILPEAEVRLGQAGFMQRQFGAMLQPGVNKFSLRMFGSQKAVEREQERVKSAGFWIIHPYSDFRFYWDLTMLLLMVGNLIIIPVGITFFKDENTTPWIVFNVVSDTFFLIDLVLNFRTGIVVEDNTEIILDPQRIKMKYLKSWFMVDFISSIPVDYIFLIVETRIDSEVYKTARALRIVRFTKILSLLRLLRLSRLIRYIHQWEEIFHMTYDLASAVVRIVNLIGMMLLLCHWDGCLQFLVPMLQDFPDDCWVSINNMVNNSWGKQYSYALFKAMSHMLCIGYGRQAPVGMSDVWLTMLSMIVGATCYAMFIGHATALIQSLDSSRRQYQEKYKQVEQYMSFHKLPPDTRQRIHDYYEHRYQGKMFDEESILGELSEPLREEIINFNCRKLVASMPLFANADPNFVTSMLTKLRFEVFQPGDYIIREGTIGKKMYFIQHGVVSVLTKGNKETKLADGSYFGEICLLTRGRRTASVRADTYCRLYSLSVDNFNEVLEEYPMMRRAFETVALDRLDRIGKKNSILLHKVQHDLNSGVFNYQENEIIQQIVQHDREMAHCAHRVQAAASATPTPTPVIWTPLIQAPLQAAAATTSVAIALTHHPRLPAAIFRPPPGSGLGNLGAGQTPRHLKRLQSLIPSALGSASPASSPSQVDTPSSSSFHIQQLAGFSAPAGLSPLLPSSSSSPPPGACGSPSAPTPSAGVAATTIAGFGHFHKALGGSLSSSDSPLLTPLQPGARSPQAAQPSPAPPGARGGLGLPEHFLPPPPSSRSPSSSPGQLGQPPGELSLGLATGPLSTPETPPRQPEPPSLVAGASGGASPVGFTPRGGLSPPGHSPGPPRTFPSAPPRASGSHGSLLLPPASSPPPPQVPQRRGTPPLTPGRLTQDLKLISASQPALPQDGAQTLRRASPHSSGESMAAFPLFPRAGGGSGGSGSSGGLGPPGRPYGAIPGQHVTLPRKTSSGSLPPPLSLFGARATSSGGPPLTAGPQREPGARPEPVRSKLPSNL
From the text: (§1) Ion channel screening. […] The parameters measured were the maximum inward current evoked on stepping to -20 mV from the 1st and 26th pulse. Human Kv4.3/KChIP2 currents were evoked from a holding potential of -80 mV by a series of four 500 msec pulses to 0 mV using a 1000 msec interval between pulses. The parameter measured was the amplitude of the outward current 50 msec after the onset of the 4th voltage step to 0 mV. […] Human Kv1.5 currents were evoked by a single pulse from a holding potential of -80 mV to a potential of 0 mV for 4 sec before returning to -80 mV. The parameters measured were the maximum amplitude of outward currents evoked at the beginning of the voltage pulse and at the end of the voltage step from -80 mV to 0 mV. Human KCNQ1/minK currents were evoked by a single pulse delivered from a holding potential of -80 mV to +60 mV for 4 sec before returning to -80 mV. The parameter measured was the maximum outward current evoked on stepping to +60 mV from the holding potential of -80 mV. hERG currents were evoked by a three-pulse protocol where voltage was first stepped to +40 mV for two sec from a holding potential of –80 mV to inactivate hERG channels. […] The parameter measured was the maximum inward current evoked upon stepping to -110 mV from the holding potential of -30 mV. […]

[4] = biological target: Nav1.5 (Homo sapiens, UniProt Q14524); test: Ion channel screening; assay type: cell-based; settings: 10 µM, pulse 26
Nav1.5, sequence (Q14524 whole entry): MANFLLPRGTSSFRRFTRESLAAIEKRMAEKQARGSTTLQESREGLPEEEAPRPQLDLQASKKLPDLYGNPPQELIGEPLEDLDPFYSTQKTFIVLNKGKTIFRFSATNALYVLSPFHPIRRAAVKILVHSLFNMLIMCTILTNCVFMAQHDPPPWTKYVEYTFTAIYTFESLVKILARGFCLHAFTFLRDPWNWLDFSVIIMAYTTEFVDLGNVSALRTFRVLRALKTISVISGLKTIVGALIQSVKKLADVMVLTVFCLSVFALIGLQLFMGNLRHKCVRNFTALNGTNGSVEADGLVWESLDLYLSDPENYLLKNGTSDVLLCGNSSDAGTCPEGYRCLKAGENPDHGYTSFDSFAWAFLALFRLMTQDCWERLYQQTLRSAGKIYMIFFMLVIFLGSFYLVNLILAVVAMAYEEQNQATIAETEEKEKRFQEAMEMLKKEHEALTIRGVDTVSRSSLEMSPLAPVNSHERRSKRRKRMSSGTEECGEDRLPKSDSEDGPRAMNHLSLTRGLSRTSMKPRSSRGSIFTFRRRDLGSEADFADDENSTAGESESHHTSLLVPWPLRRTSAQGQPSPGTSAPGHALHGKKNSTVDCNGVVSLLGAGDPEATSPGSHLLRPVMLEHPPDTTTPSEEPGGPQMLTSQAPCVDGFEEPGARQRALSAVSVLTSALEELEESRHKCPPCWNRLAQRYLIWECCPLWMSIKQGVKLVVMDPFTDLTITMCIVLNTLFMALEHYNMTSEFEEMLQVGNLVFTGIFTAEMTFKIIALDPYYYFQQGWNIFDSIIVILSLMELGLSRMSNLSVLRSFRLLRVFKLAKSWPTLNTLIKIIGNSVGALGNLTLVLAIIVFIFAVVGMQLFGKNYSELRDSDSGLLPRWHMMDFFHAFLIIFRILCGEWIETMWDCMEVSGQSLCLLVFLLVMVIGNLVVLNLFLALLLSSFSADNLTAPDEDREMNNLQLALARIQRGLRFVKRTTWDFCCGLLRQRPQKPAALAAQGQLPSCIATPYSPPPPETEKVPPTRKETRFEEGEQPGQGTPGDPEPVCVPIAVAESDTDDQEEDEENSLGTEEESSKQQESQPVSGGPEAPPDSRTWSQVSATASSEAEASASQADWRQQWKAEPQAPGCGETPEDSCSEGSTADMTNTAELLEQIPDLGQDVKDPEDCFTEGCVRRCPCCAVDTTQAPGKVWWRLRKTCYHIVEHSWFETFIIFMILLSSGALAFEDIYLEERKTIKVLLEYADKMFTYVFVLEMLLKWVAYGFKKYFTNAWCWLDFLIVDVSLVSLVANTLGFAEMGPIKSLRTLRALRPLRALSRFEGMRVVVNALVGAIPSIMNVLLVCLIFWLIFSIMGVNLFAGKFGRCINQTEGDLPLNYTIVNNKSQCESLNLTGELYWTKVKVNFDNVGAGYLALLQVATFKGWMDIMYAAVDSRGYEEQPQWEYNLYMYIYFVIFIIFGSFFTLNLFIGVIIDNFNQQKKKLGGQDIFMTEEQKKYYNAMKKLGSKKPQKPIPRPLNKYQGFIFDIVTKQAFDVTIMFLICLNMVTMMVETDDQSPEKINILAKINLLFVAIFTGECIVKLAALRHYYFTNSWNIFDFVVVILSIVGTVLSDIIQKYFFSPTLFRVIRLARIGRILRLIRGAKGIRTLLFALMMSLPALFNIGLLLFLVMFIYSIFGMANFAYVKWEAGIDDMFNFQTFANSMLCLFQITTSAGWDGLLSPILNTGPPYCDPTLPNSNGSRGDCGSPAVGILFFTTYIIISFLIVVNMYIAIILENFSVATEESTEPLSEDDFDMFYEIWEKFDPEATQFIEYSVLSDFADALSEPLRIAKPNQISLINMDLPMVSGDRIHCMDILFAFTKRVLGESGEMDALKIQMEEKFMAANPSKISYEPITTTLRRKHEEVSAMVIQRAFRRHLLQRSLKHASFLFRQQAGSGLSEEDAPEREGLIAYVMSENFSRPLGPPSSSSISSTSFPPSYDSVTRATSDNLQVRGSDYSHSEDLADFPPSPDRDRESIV
From the text: as §1

SMILES: COC1C=CC=C(C)C(=O)NC2=CC(=O)C(NCCCCCC[P+](c3ccccc3)(c3ccccc3)c3ccccc3)=C(CC(C)CC(OC)C(O)C(C)C=C(C)C1OC(N)=O)C2=O.F[P-](F)(F)(F)(F)F (stereo not shown) [Gamitrinib]
- IC50 [1]: 8 µM
- IC50 [2]: 3.5 µM
- inhibition of hERG currents ([2]; 0.5 µM): −0.68 ± 3.95%
- inhibition of hERG currents ([2]; 5 µM): 65.95 ± 6.78%
- hERG IC50 over IC50 of inhibition of tumor growth in NCI 60-cell line screen ([2]; ratio): up to 20 fold
- inhibition of HCN4 currents [3]: −0.2 ± 3.7%
- inhibition of Nav1.5 currents [4]: 22.3 ± 5.3%
